According to US20100016307A1, “NOVEL COMPOUNDS” (priority 2006, published 2010):

target: T1, c-Met/cFms chimeric receptor in c-Met/cFms/NIH3T3 cells (Homo sapiens, UniProt P08581); test: Cell-based assay for c-Met autophosphorylation (ELISA); conditions: compounds 1 h at 37° C., M-CSF (600 ng/ml) stimulation 10 min
T1 construct: The transmembrane/cytoplasmic domain fragment of c-Met (nucleotides 933 to 1390); expressed in transfected cells; the other entry of the earlier key: CSF1R (P07333, Macrophage colony-stimulating factor 1 receptor)
Description: To generate a chimeric cDNA clone of c-Met with cFms, the extracellular domain of colony stimulating factor 1 receptor (CSF1R encoded by cFms gene) was fused with the transmembrane and cytoplasmic domain of c-Met. Reverse-transcribed RNA from human placenta was used as template to clone c-Met. The transmembrane/cytoplasmic domain fragment of c-Met (nucleotides 933 to 1390) containing a NotI site at both 5′- and 3′-end was generated by polymerase chain reaction (PCR) using following two oligonucleotides;
The resulting c-Met cDNA was cloned into pCR2.1-TOPO vector (c-Met/pCR2.1-TOPO). The extracellular domain fragment of cFms (nucleotides 1 to 512) containing BamHI site at 5′-end and NotI site at 3′-end was generated from human placenta cDNA by PCR using two oligonucleotides;
The resulting cFms cDNA was cloned into pcDNA3.1 vector (Invitrogen) using the BamHI and NotI sites (cFms/pcDNA3.1). To generate complete chimeric construct, the c-Met fragment (transmembrane and cytoplasmic domain) was digested with NotI sites (in c-Met/pCR2.1-TOPO vector) and then subcloned into cFms/pcDNA3.1 vector by NotI site (c-Met/cFms/pcDNA3.1).
NIH3T3 cells were grown in DMEM supplemented with 10% fetal bovine serum. NIH3T3 cells were transfected with c-Met/cFms/pcDNA3.1 vector alone using the calcium phosphate method according to the manufacturer's instructions. Three days after transfection, cells were selected with G418 (0.4 mgml^−1) for 14 days and the expression of c-Met chimeric receptor in the G418-resistant colonies of NIH3T3 (c-Met/cFms/NIH3T3) cells was analyzed by immunoblot. Autophosphorylation of c-Met induced by the stimulation with M-SCF, the ligand for CSF1R, was analyzed by immunoprecipitation and immunoblot, and prominent stable transfectant was selected for c-Met autophosphorylation assay. […]
c-Met/cFms/NIH3T3 cells were plated at 1×10^5 cells/well in collagen-coated 96-well microtitre plates and grown 24 h under standard culture conditions, followed by serum starvation for 1 h. The cells were incubated with compounds for 1 h at 37° C. and followed by M-CSF (600 ngml^−1) stimulation for 10 min at 37° C. The media was removed and the cells were lysed with 120 ul/well of lysis buffer (20 mM Tris-HCl pH8.0, 137 mM NaCl, 2 mM EDTA, 10% glycerol, 1% Triton X-100, 1 mM Na3VO4 and Protease Inhibitor Cocktail (Complete mini EDTA-free, Roche)). Then 100 ul/well of lysate was transferred to the antibody-coated (50 ng/well goat anti-cFms antibody in PBS) ELISA plate and incubated overnight at 4° C. Plates were washed five times with PBST (PBS containing 0.05% Tween-20). Primary antibody (biotin-conjugated anti-phosphotyrosine monoclonal antibody, PIERCE) was diluted 1:10,000 in PBST containing 1% BSA, added (100 ul/well) and incubated for 2 h at room temperature. After washing the plates five times with washing buffer, 100 ul/well of HRP-conjugated streptavidin (PIERCE) in PBST containing 1% BSA was added and incubated for 30 min at room temperature. After washing five times with PBST, 100 ul/well of SuperSignal ELISA Femto Substrate (PIERCE) was added and incubated for almost 1 min at room temperature. Chemiluminescence was measured using Wallac 1420 multilabel counter.
The IC50 was determined by using XLfit software (IDBS) with four-parameters, sigmoidal dose-response equation.

T1 sequence (P08581 with tags, fused parts or gaps): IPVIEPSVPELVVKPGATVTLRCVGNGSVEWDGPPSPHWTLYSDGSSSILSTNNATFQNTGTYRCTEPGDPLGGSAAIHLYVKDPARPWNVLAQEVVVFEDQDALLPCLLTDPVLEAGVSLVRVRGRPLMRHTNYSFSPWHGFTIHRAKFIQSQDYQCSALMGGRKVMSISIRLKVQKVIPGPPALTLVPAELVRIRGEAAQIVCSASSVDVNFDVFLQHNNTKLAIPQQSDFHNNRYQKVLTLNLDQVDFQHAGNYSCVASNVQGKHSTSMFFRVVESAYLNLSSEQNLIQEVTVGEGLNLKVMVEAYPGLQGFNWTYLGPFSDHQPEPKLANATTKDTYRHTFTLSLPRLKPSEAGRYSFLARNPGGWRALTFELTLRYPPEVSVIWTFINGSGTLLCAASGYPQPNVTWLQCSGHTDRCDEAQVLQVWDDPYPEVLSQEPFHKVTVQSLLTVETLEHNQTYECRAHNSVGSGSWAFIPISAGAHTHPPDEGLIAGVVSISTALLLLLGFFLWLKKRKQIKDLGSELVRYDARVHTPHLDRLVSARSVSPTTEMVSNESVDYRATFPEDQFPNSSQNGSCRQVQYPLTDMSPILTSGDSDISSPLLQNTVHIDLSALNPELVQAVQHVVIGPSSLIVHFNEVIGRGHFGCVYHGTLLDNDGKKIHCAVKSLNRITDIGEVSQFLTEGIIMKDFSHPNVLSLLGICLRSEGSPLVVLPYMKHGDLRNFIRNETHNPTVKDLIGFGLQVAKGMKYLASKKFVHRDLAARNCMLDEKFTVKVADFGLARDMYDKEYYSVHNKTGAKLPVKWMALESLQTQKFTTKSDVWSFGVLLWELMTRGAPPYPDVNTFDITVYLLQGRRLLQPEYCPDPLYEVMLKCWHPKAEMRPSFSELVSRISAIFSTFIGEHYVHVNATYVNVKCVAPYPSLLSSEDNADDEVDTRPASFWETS

| IC50 [nM] | Compound |
| --- | --- |
| 1000 to 3160 | O=C(NCCN1CCNCC1)c1cc2c(Oc3ccc(NC(=O)C4(C(=O)Nc5ccc(F)cc5)CC4)cc3)ccnc2[nH]1 [Example 3, N^1-(4-Fluorophenyl)-N^1-(4-{[2-({[2-(1-piperazinyl)ethyl]amino}carbonyl)-1H-pyrrolo[2,3-b]pyridin-4-yl]oxy}phenyl)-1,1-cyclopropane dicarboxamide] |
| 1000 to 3160 | CN(C)c1ccc(CNC(=O)c2cc3c(Oc4ccc(NC(=O)C5(C(=O)Nc6ccc(F)cc6)CC5)cc4)ccnc3[nH]2)cc1 [Example 11, N^1-[4-({2-[({[4-(Dimethylamino)phenyl]methyl}amino)carbonyl]-1H-pyrrolo[2,3-b]pyridin-4-yl}oxy)phenyl]-N^1-(4-fluorophenyl)-1,1-cyclopropane dicarboxamide] |
| 1000 to 3160 | COc1ccccc1CNC(=O)c1cc2c(Oc3ccc(NC(=O)C4(C(=O)Nc5ccc(F)cc5)CC4)cc3)ccnc2[nH]1 [Example 12, N^1-(4-Fluorophenyl)-N^1-[4-({2-[({[2-(methyloxy)phenyl]methyl}amino)carbonyl]-1H-pyrrolo[2,3-b]pyridin-4-yl}oxy)phenyl]-1,1-cyclopropane dicarboxamide] |
| 3160 to 31600 | COc1ccccc1NC(=O)c1cc2c(Oc3ccc(NC(=O)C4(C(=O)Nc5ccc(F)cc5)CC4)cc3)ccnc2[nH]1 [Example 13, N^1-(4-Fluorophenyl)-N^1-(4-{[2-({[2-(methyloxy)phenyl]amino}carbonyl)-1H-pyrrolo[2,3-b]pyridin-4-yl]oxy}phenyl)-1,1-cyclopropane dicarboxamide] |
| 1000 to 3160 | CCOC(=O)c1cc2c(Nc3ccc(NC(=O)C4(C(=O)Nc5ccc(F)cc5)CC4)cc3)ccnc2[nH]1 [Example 17, Ethyl 4-[(4-{[(1-{[(4-fluorophenyl)amino]carbonyl}cyclopropyl)carbonyl]amino}phenyl)amino]-1H-pyrrolo[2,3-b]pyridine-2-carboxylate] |
| 1000 to 3160 | O=C(NCCN1CCOCC1)c1cc2c(Nc3ccc(NC(=O)C4(C(=O)Nc5ccc(F)cc5)CC4)cc3)ccnc2[nH]1 [Example 19, N^1-(4-Fluorophenyl)-N^1-(4-{[2-({[2-(4-morpholinyl)ethyl]amino}carbonyl)-1H-pyrrolo[2,3-b]pyridin-4-yl]amino}phenyl)-1,1-cyclopropane dicarboxamide] |
| 3160 to 31600 | O=C(NCCc1c[nH]cn1)c1cc2c(Nc3ccc(NC(=O)C4(C(=O)Nc5ccc(F)cc5)CC4)cc3)ccnc2[nH]1 [Example 20, N^1-(4-Fluorophenyl)-N^1-(4-{[2-({[2-(1H-imidazol-4-yl)ethyl]amino}carbonyl)-1H-pyrrolo[2,3-b]pyridin-4-yl]amino}phenyl)-1,1-cyclopropane dicarboxamide] |
| 3160 to 31600 | CS(=O)(=O)CCNC(=O)c1cc2c(Nc3ccc(NC(=O)C4(C(=O)Nc5ccc(F)cc5)CC4)cc3)ccnc2[nH]1 [Example 21, N^1-(4-Fluorophenyl)-N^1-(4-{[2-({[2-(methylsulfonyl)ethyl]amino}carbonyl)-1H-pyrrolo[2,3-b]pyridin-4-yl]amino}phenyl)-1,1-cyclopropane dicarboxamide] |
| 3160 to 31600 | O=C(Nc1ccc(F)cc1)C1(C(=O)Nc2ccc(Nc3ccnc4[nH]c(-c5ccccc5)cc34)cc2)CC1 [Example 22, N^1-(4-Fluorophenyl)-N^1-{4-[(2-phenyl-1H-pyrrolo[2,3-b]pyridin-4-yl)amino]phenyl}-1,1-cyclopropanedicarboxamide] |

target: T2, human Met Kinase (His6-GST fusion, aa 956-1390) (Homo sapiens, UniProt P08581); test: In vitro screen: kinase assay of purified Met kinase; type: biochemical; conditions: purified Met 1 nM, 10 μM ATP, 1 μM peptide substrate, 1 hour at room temperature; read-out: pIC50 values at the c-Met receptor (in vitro screen results) (converted)
T2 construct: His6 (N); GST (Glutathione-S-Transferase) (N); made in house; host or cells: baculovirus expression system in Sf9 cells
Description: The peptide substrate, Biotin-aminohexyl-EEEEYFELVAKKKK-amide was purchased from SynPep Solid sample is dissolved at approximately 2.5 mM in water (concentration determined by amino acid analysis) and aliquots stored at −20° C.
Met Kinase: A fusion protein consisting of His6-tagged Glutathione-S-Transferase (GST) and amino acid residues 956-1390 of human Met Kinase (aa 956-1390 of Entrez Protein Accession # EAL24359.1 (met proto-oncogene (hepatocyte growth factor receptor) [Homo sapiens])) from “www.ncbi.nlm.nih.gov/entrez/”) is purified from baculovirus expression system in Sf9 cells using Ni chelate column, GSH column, followed by size exclusion chromatography. Purity greater than 90%, estimated by SDS-PAGE, is achieved. Samples in 25 mM HEPES pH 7.5, 100 mM NaCl, 0.1 mM EDTA are stored at −80° C. until use.
Assays are performed in 96 well (Costar, Catalog No. 3789) or 384 well plates (Costar, Catalog No. 3705). Assay conditions for the peptide phosphorylation reaction (in 10, 20, 25, or 40 μl volume) mix are 100 mM Hepes buffer, pH 7.4; 0.1 mgml^−1 BSA; 5 mM MgCl2; 1 mM DTT; 10 μM ATP; purified Met (1 nM final); and 1 μM peptide substrate. Compounds, titrated in DMSO, are evaluated at concentrations ranging from 50 μM to 0.2 nM. […] Reactions are incubated for 1 hour at room temperature and are stopped by addition of detection reagents containing, at final detection volume, 12.5 mM EDTA; 100 mM Hepes; 0.1 mg/ml BSA; 8 nM Streptavidin APC (Perkin Elmer catalog #CR130-150); 1 nM Europium-labelled anti-phosphotyrosine antibody (Perkin Elmer catalog #AD0067). Under the assay conditions defined above, the Km (apparent) for ATP is determined to be 40 μM.
The data for compound dose responses were plotted as % Inhibition, calculated with the data reduction formula 100*(1−[(U1−C2)/(C1−C2)]), versus concentration of compound, where U is the unknown value, C1 is the average control value obtained for DMSO, and C2 is the average control value obtained for 0.05M EDTA. Data were fitted to the curve described by: y=((Vmax*x)/(K+x)) where Vmax is the upper asymptote and K is the IC50. The results for each compound were recorded as pIC50 calculated as follows: pIC50=−Log 10(K).

T2 sequence (P08581 956-1390): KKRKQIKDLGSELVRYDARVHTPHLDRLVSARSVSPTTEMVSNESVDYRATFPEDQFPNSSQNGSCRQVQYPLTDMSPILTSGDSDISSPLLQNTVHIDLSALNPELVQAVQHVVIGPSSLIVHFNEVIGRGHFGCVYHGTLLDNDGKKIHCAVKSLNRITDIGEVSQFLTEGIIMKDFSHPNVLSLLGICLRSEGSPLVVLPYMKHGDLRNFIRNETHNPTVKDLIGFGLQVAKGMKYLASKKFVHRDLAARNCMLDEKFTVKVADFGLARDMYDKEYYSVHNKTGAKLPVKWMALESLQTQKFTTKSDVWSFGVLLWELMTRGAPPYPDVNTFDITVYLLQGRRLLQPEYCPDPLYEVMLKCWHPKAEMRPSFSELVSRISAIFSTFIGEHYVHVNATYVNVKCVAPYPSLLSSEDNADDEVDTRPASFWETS

| IC50 [nM] | Compound |
| --- | --- |
| < 10 | CS(=O)(=O)CCNC(=O)c1cc2c(Oc3ccc(NC(=O)C4(C(=O)Nc5ccc(F)cc5)CC4)cc3)ccnc2[nH]1 [Example 1, N^1-(4-Fluorophenyl)-N^1-(4-{[2-({[2-(methylsulfonyl)ethyl]amino}carbonyl)-1H-pyrrolo[2,3-b]pyridin-4-yl]oxy}phenyl)-1,1-cyclopropane dicarboxamide] |
| < 10 | O=C(NCCN1CCOCC1)c1cc2c(Oc3ccc(NC(=O)C4(C(=O)Nc5ccc(F)cc5)CC4)cc3)ccnc2[nH]1 [Example 4, N^1-(4-Fluorophenyl)-N^1-(4-{[2-({[2-(4-morpholinyl)ethyl]amino}carbonyl)-1H-pyrrolo[2,3-b]pyridin-4-yl]oxy}phenyl)-1,1-cyclopropane dicarboxamide] |
| < 10 | CN(C)CCCNC(=O)c1cc2c(Oc3ccc(NC(=O)C4(C(=O)Nc5ccc(F)cc5)CC4)cc3)ccnc2[nH]1 [Example 5, N^1-(4-{[2-({[3-(Dimethylamino)propyl]amino}carbonyl)-1H-pyrrolo[2,3-b]pyridin-4-yl]oxy}phenyl)-N^1-(4-fluorophenyl)-1,1-cyclopropane dicarboxamide] |
| < 10 | O=C(NCCO)c1cc2c(Oc3ccc(NC(=O)C4(C(=O)Nc5ccc(F)cc5)CC4)cc3)ccnc2[nH]1 [Example 7, N^1-(4-Fluorophenyl)-N^1-{4-[(2-{[(2-hydroxyethyl)amino]carbonyl}-1H-pyrrolo[2,3-b]pyridin-4-yl)oxy]phenyl}-1,1-cyclopropanedicarboxamide] |
| < 10 | NC(=O)CNC(=O)c1cc2c(Oc3ccc(NC(=O)C4(C(=O)Nc5ccc(F)cc5)CC4)cc3)ccnc2[nH]1 [Example 8, N^1-{4-[(2-{[(2-Amino-2-oxoethyl)amino]carbonyl}-1H-pyrrolo[2,3-b]pyridin-4-yl)oxy]phenyl}-N^1-(4-fluorophenyl)-1,1-cyclopropanedicarboxamide] |
| < 10 | O=C(NCCc1c[nH]cn1)c1cc2c(Oc3ccc(NC(=O)C4(C(=O)Nc5ccc(F)cc5)CC4)cc3)ccnc2[nH]1 [Example 9] |
| 100 to 1000 | O=C(Nc1ccc(F)cc1)C1(C(=O)Nc2ccc(Nc3ccnc4[nH]ccc34)cc2)CC1 [Example 15, N^1-(4-Fluorophenyl)-N^1-[4-(1H-pyrrolo[2,3-b]pyridin-4-ylamino)phenyl]-1,1-cyclopropanedicarboxamide] |
